Data: US20090047246A1, “NOVEL INHIBITORS OF HEPATITIS C VIRUS REPLICATION” (InterMune, Inc., priority 2007, published 2009)

Molecular target: T1, HCV NS3 helicase (Hepatitis C virus genotype 1b, UniProt P26663)
T1 construct: full-length NS3 (1-631), purified at Array BioPharma
Assay: HCV Helicase Prompt FRET Assay (Example A)
Type: biochemical
Settings: 2nd test; read-out: IC50 Activity (on 2nd test)
In short: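 Full-length NS3 (1-631), 5 or 6 nM, preincubated 5 min with compound, then unwinds 50 nM FAM/BHQ-1 duplex substrate with 250 nM capture strand and 300 μM ATP in 25 mM MOPS pH 7.0, 1.5 mM MgCl2, 0.005% Triton X-100, 2% DMSO. Fluorescence (485/535 nm) followed ~30 min at room temperature; IC50 from initial rates by 4- or 5-parameter fit.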

T1 sequence (P26663 1027-1657): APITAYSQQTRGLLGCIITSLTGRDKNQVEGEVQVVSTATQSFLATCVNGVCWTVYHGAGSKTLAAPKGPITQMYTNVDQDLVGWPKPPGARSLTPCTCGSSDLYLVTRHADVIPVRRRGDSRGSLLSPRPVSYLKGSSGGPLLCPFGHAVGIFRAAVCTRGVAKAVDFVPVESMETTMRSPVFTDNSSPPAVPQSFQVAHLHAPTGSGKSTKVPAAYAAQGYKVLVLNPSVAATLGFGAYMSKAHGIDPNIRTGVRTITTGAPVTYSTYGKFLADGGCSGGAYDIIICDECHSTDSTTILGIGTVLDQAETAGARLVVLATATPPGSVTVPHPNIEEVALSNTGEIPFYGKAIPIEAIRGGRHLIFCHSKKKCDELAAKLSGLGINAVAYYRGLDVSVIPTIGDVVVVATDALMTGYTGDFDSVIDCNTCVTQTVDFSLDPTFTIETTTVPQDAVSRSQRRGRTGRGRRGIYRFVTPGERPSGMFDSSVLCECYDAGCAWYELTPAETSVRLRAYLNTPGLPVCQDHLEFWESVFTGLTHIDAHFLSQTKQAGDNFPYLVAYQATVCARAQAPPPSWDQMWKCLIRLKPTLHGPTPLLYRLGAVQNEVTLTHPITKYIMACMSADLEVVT

IC50	SMILES
> 50 µM	COC(=O)C(c1ccccc1)c1cn(-c2ccc([N+](=O)[O-])cc2C)c2ccc(Br)cc12 (stereo not drawn) [Example 387]

Same assay, conditions: HCV NS3 helicase; tables do not say whether Example A or Example B assay; read-out: IC50 Activity

SMILES	IC50
Cc1cc([N+](=O)[O-])ccc1-n1ccc2cc(Br)ccc21 [Example 376]	> 50 µM
Cc1cc([N+](=O)[O-])ccc1-n1cc(CC(=O)O)c2ccccc21 [Example 377]	> 50 µM
COC(=O)Cc1cn(-c2ccc([N+](=O)[O-])cc2C)c2ccc(Br)cc12 [Example 378]	> 50 µM
CCOC(=O)C(=O)c1cn(-c2ccc([N+](=O)[O-])cc2C)c2ccc(Br)cc12 [Example 379]	10 to 50 µM
Cc1ccc2c(c1)c(CC(=O)O)cn2-c1ccc([N+](=O)[O-])cc1C [Example 380]	> 50 µM
Cc1cc([N+](=O)[O-])ccc1-n1cc(C(=O)C(=O)O)c2cc(Br)ccc21 [Example 381]	10 to 50 µM
CCOC(=O)C(F)(F)c1cn(-c2ccc([N+](=O)[O-])cc2C)c2ccc(Br)cc12 [Example 383]	10 to 50 µM
Cc1cc([N+](=O)[O-])ccc1-n1cc(C(=O)C(N)=O)c2cc(Br)ccc21 [Example 384]	> 50 µM
CCN(CC)C(=O)C(=O)c1cn(-c2ccc([N+](=O)[O-])cc2C)c2ccc(Br)cc12 [Example 385]	> 50 µM
COC(=O)C(c1ccccc1)c1cn(-c2ccc([N+](=O)[O-])cc2C)c2ccc(Br)cc12 (stereo not drawn) [Example 387]	10 to 50 µM
Cc1cc([N+](=O)[O-])ccc1-n1cc(C(C(=O)O)c2ccccc2)c2cc(Br)ccc21 (stereo not drawn) [Example 388]	< 10 µM
COC(=O)C(C)c1cn(-c2ccc([N+](=O)[O-])cc2C)c2ccc(Br)cc12 (stereo not drawn) [Example 390]	> 50 µM
Cc1cc([N+](=O)[O-])ccc1-n1cc(C(O)(C(=O)O)C(F)(F)F)c2cc(Br)ccc21 (stereo not drawn) [Example 392]	< 10 µM
COC(=O)CC1CN(c2ccc([N+](=O)[O-])cc2C)c2ccc(Br)cc21 (stereo not drawn) [Example 393]	10 to 50 µM
CCOC(=O)C(O)c1cn(-c2ccc([N+](=O)[O-])cc2C)c2ccc(Br)cc12 (stereo not drawn) [Example 394]	> 50 µM
Cc1cc([N+](=O)[O-])ccc1N1CC(CC(=O)O)c2cc(Br)ccc21 (stereo not drawn) [Example 395]	10 to 50 µM
COC(=O)C(c1ccc([N+](=O)[O-])cc1C)c1cn(-c2ccc([N+](=O)[O-])cc2C)c2ccc(Br)cc12 (stereo not drawn) [Example 396]	< 10 µM

SMILES	IC50
COC(=O)C(Cc1ccccc1)c1cn(-c2ccc([N+](=O)[O-])cc2C)c2ccc(Br)cc12 (stereo not drawn) [Example 397]	> 50 µM
Cc1cc([N+](=O)[O-])ccc1-n1cc(C(Cc2ccccc2)C(=O)O)c2cc(Br)ccc21 (stereo not drawn) [Example 398]	< 10 µM
Cc1cc([N+](=O)[O-])ccc1Cc1cn(-c2ccc([N+](=O)[O-])cc2C)c2ccc(Br)cc12 [Example 399]	10 to 50 µM
COC(=O)C(c1ccc([N+](=O)[O-])cc1C)C1CN(c2ccc([N+](=O)[O-])cc2C)c2ccc(Br)cc21 (stereo not drawn) [Example 400]	10 to 50 µM
Cc1cc([N+](=O)[O-])ccc1-n1cc(C(O)(C(=O)N2CCCC2)C(F)(F)F)c2cc(Br)ccc21 (stereo not drawn) [Example 402]	> 50 µM
Cc1cc([N+](=O)[O-])ccc1C(C(=O)O)C1CN(c2ccc([N+](=O)[O-])cc2C)c2ccc(Br)cc21 (stereo not drawn) [Example 404]	10 to 50 µM
Cc1cc([N+](=O)[O-])ccc1CC1CN(c2ccc([N+](=O)[O-])cc2C)c2ccc(Br)cc21 (stereo not drawn) [Example 405]	10 to 50 µM
Cc1cc([N+](=O)[O-])ccc1C(C(=O)O)C1CN(c2ccc([N+](=O)[O-])cc2C)c2ccc(Br)cc21 (stereo not drawn) [Example 406]	10 to 50 µM
O=C(O)C(Cc1c[nH]c2ccc(Br)cc12)c1c[nH]c2ccc(Br)cc12 (stereo not drawn) [Example 411]	10 to 50 µM
CCOC(=O)Cc1c(-c2ccccc2)n(Cc2csc3ccc(Cl)cc23)c2ccccc12 [Example 412]	> 50 µM
CCOC(=O)C(Cc1ccccc1)c1c(-c2ccccc2)n(Cc2csc3ccc(Cl)cc23)c2ccccc12 (stereo not drawn) [Example 413]	> 50 µM
O=C(O)Cc1c(-c2ccccc2)n(Cc2csc3ccc(Cl)cc23)c2ccccc12 [Example 414]	< 10 µM
O=C(O)C(Cc1ccccc1)c1c(-c2ccccc2)n(Cc2csc3ccc(Cl)cc23)c2ccccc12 (stereo not drawn) [Example 415]	< 10 µM
Cc1cc([N+](=O)[O-])ccc1-n1cc(C(CC2CC2)C(=O)O)c2ccccc21 (stereo not drawn) [Example 416]	10 to 50 µM
CC(C)c1ccc(Cn2cc(C(=O)C(=O)O)c3ccccc32)cc1 [Example 417]	10 to 50 µM
CN(Cc1ccccc1)c1ccc(-n2cc(C(O)(C(=O)O)C(F)(F)F)c3ccccc32)cc1 (stereo not drawn) [Example 425]	< 10 µM

Now from value to compound:

IC50	SMILES
> 50 µM	Cc1cc([N+](=O)[O-])ccc1-n1cc(C(=O)O)c2cc(Br)ccc21 [Example 382]
10 to 50 µM	Cc1cc([N+](=O)[O-])ccc1-n1cc(CCC(=O)O)c2cc(Br)ccc21 [Example 386]
10 to 50 µM	Cc1cc([N+](=O)[O-])ccc1-n1cc(C(C)C(=O)O)c2cc(Br)ccc21 (stereo not drawn) [Example 391]
> 50 µM	Cc1cc([N+](=O)[O-])ccc1-n1cc(C(=O)C(=O)N2CCCC2)c2cc(Br)ccc21 [Example 401]
> 50 µM	COC(=O)C(Cc1ccc(C(C)C)cc1)c1cn(-c2ccc([N+](=O)[O-])cc2C)c2ccc(Br)cc12 (stereo not drawn) [Example 407]
10 to 50 µM	Cc1cc([N+](=O)[O-])ccc1-n1cc(C(Cc2ccc(C(C)C)cc2)C(=O)O)c2cc(Br)ccc21 (stereo not drawn) [Example 408]
> 50 µM	COC(=O)C(Cc1ccccc1)c1cn(Cc2ccc(C(C)C)cc2)c2ccc(Br)cc12 (stereo not drawn) [Example 409]
< 10 µM	CC(C)c1ccc(Cn2cc(C(Cc3ccccc3)C(=O)O)c3ccccc32)cc1 (stereo not drawn) [Example 410]
> 50 µM	CC(C)c1ccc(Cn2cc(C(N)C(=O)O)c3ccccc32)cc1 (stereo not drawn) [Example 418]
10 to 50 µM	CC(C)c1ccc(Cn2cc(C(NC(=O)OC(C)(C)C)C(=O)O)c3ccccc32)cc1 (stereo not drawn) [Example 419]
10 to 50 µM	CC(=O)NC(C(=O)O)c1cn(Cc2ccc(C(C)C)cc2)c2ccccc12 (stereo not drawn) [Example 420]
> 50 µM	COC(=O)C(NC(=O)c1c[nH]cn1)c1cn(Cc2ccc(C(C)C)cc2)c2ccccc12 (stereo not drawn) [Example 421]
10 to 50 µM	CC(C)c1ccc(Cn2cc(C(NC(=O)c3c[nH]cn3)C(=O)O)c3ccccc32)cc1 (stereo not drawn) [Example 422]
10 to 50 µM	CC(C)c1ccc(Cn2cc(C(NC(N)=O)C(=O)O)c3ccccc32)cc1 (stereo not drawn) [Example 423]
10 to 50 µM	CC(C)c1ccc(Cn2cc(CC(=O)O)c3ccccc32)cc1 [Example 424]
10 to 50 µM	CCOC(=O)c1c(CC(=O)O)c2cc(Br)ccc2n1Cc1ccc(C(C)C)cc1 [Example 427]
> 50 µM	CC(C)c1ccc(Cn2c(C(=O)N3CCOCC3)c(CC(=O)O)c3cc(Br)ccc32)cc1 [Example 428]
> 50 µM	CC(C)c1ccc(Cn2c(C(=O)N3CCNC(=O)C3)c(CC(=O)O)c3cc(Br)ccc32)cc1 [Example 429]
> 50 µM	CC(C)c1ccc(Cn2c(C(=O)N3CCNCC3)c(CC(=O)O)c3cc(Br)ccc32)cc1 [Example 430]
10 to 50 µM	CC(C)c1ccc(Cn2c(C(=O)N3CCCC3)c(CC(=O)O)c3cc(Br)ccc32)cc1 [Example 431]
10 to 50 µM	CCN(CC)C(=O)c1c(CC(=O)O)c2cc(Br)ccc2n1Cc1ccc(C(C)C)cc1 [Example 432]

Same assay, conditions: IC50 Activity, HCV NS3 helicase; tables do not say whether Example A or Example B assay

SMILES	IC50
CCOC(=O)C(O)(c1cn(-c2ccc([N+](=O)[O-])cc2C)c2ccc(Br)cc12)C(F)(F)F (stereo not drawn) [Example 389]	> 50 µM

Same assay, conditions: numeric bound instead of class symbol; read-out: IC50 Activity

IC50	SMILES
> 20 µM	COC(=O)C(c1ccc([N+](=O)[O-])cc1C)C1CN(c2ccc([N+](=O)[O-])cc2C)c2ccc(Br)cc21 (stereo not drawn) [Example 403]
